ChEMBL document CHEMBL5576120, “Discovery and In Vivo Efficacy of AZ-PRMT5i-1, a Novel PRMT5 Inhibitor with High MTA Cooperativity” (J Med Chem, 2024)
≈ marks a conversion by molar mass, not a printed value.

Key:
[1] = Intrinsic clearance in rat hepatocytes assessed per million cells; format: ADME, cell-based, Hepatocyte; details: read-out: CLH
[2] = physchem; details: buffer, pH 7.4
Description: Lipophilicity, logD of compound at pH 7.4

[3] = in vitro; details: human, Caco-2
Description: Apparent permeability across apical to basal side of human Caco-2 cells at 10 uM

[4] = biological target: T1, PRMT5/MEP50 complex (Homo sapiens, UniProt O14744); test: biochemical
T1 sequence (O14744 whole entry): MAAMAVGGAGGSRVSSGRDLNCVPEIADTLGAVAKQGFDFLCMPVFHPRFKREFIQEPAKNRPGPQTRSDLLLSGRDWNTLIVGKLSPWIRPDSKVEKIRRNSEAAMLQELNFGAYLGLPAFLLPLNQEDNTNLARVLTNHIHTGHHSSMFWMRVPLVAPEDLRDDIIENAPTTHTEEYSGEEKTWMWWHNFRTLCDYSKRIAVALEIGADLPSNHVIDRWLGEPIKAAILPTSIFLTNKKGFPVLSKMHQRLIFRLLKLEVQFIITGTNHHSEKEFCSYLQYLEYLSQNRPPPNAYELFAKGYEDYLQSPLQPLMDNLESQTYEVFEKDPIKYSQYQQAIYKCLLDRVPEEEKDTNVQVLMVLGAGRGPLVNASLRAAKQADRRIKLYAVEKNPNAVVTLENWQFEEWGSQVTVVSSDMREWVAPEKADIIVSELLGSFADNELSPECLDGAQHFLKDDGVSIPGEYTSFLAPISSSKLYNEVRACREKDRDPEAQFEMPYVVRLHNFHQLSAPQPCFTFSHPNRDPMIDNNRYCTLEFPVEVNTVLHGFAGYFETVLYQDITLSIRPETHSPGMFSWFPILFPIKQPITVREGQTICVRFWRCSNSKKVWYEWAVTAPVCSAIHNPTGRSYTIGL
T1 sequence (Q9BQA1 whole entry, further chain): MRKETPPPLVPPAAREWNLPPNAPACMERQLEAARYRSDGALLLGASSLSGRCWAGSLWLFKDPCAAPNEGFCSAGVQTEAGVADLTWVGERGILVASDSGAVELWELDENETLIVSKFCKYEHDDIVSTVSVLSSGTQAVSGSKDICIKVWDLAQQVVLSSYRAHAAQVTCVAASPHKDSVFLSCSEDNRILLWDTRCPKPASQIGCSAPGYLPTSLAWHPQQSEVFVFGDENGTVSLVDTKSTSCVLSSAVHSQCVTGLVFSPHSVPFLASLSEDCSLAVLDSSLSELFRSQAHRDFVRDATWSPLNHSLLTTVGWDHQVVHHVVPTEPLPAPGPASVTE
Description: Inhibition of PRMT5 (1 to 637 residues)/MEP504 (2 to 342 residues)(unknown origin) expressed in baculovirus infected Sf21 insect cells using histone H4/SAM as substrate incubated for 5 hrs in presence of MTA by MTase Glo assay

[5] = biological target: T1, PRMT5/MEP50 complex; test: biochemical; remark: listed apart in the source
Description: Inhibition of PRMT5 (1 to 637 residues)/MEP504 (2 to 342 residues)(unknown origin) expressed in baculovirus infected Sf21 insect cells using histone H4/SAM as substrate incubated for 5 hrs by MTase Glo assay

[6] = test system: HCT-116; test: Cooperativity fold, ratio of IC50 for PRMT5 in human HCT-116 cells expressing wild-type MTAP assessed as decrease in SMDA level to IC50 for PRMT5 in human HCT-116 cells with MTAP KO assessed as decrease in SMDA level; format: cell-based
[7] = biological target: Protein arginine N-methyltransferase 5 (Homo sapiens, UniProt O14744)
Sequence of Protein arginine N-methyltransferase 5 (O14744 whole entry): as the sequence (O14744 whole entry) above
Description: Inhibition of PRMT5 in human HCT-116 cells with MTAP KO assessed as decrease in SMDA level incubated for 48 hrs by immunofluorescence analysis

[8] = physchem; details: phosphate buffer, pH 7.4
[9] = Half life in Wistar Han rat at 1 mg/kg, po or 0.5 mg/kg, iv; format: ADME, organism-based; details: in vivo
[10] = Volume of distribution at steady state in Wistar Han rat at 1 mg/kg, po or 0.5 mg/kg, iv; format: ADME, organism-based; details: in vivo
[11] = Unbound protein binding in rat plasma by equilibrium dialysis; format: ADME, cell-free
[12] = Oral bioavailability at steady state in Wistar Han rat at 1 mg/kg; format: ADME, organism-based; details: in vivo
[13] = Antitumor activity against human PDX GA2254 cells xenografted in Balb/c nude mouse assessed as tumor regression at 50 mg/kg, po bid measured for 21 days relative to control; format: functional; details: time 21 day
[14] = Antitumor activity against human PDX GA2254 cells xenografted in Balb/c nude mouse assessed as inhibition of SDMA level at 10 mg/kg, po bid measured for 21 days relative to control; format: functional; details: PDX GA2254, 504 h, time 21 day, read-out: TGI
[15] = test system: Lu-99 cell line; test: Antitumor activity against human Lu-99 cells xenografted in nude mouse assessed as inhibition of SDMA level at 100 mg/kg, po bid measured after 21 days relative to control; format: functional; details: Lu-99, 504 h, time 21 day
[16] = Intrinsic clearance in human hepatocytes assessed per million cells; format: ADME, cell-based, Hepatocyte; details: read-out: CLH
[17] = test system: Lu-99 cell line; test: Antitumor activity against human Lu-99 cells xenografted in nude mouse at 100 mg/kg, po bid measured after 21 days relative to control; format: functional; details: Lu-99, 504 h, time 21 day, read-out: TGI
[18] = Oral bioavailability in CD-1 mouse at 1 mg/kg; format: ADME, organism-based; details: in vivo
[19] = Toxicity in nude mouse xenografted with human Lu-99 cells assessed as body weight loss upto 100 mg/kg, po bid measured for 21 days; format: organism-based; details: in vivo, 504 h, time 21 day
[20] = Antitumor activity against human PDX GA2254 cells xenografted in Balb/c nude mouse at 10 mg/kg, po bid measured for 21 days relative to control; format: functional; details: PDX GA2254, 504 h, time 21 day, read-out: TGI
[21] = test system: Lu-99 cell line; test: Antitumor activity against human Lu-99 cells xenografted in nude mouse assessed as inhibition of SDMA level administered orally twice a day measured for 21 days; format: functional, cell-based; details: dose 1-10 mg/kg, route po, time 21.0 day
[22] = test system: Lu-99 cell line; test: Antitumor activity against human Lu-99 cells xenografted in nude mouse assessed as tumor growth inhibition administered orally twice a day measured for 21 days; format: functional, cell-based; details: dose 1-10 mg/kg, route po, time 21.0 day
[23] = Antitumor activity against human PDX GA2254 cells xenografted in Balb/c nude mouse assessed as inhibition of SDMA level at 50 mg/kg, po bid measured for 21 days relative to control; format: functional; details: PDX GA2254, 504 h, time 21 day, read-out: TGI
[24] = test system: Lu-99 cell line; test: Antiproliferative activity against human Lu-99 cells incubated for 7 days; format: functional, cell-based; details: Lu-99, 168 h
[25] = Volume of distribution at steady state in CD-1 mouse at 1 mg/kg, po or 0.5 mg/kg, iv; format: ADME, organism-based; details: in vivo
[26] = biological target: Translocator protein (Homo sapiens, UniProt P30536); test: Inhibition of human TSPO
Sequence of Translocator protein (P30536 whole entry): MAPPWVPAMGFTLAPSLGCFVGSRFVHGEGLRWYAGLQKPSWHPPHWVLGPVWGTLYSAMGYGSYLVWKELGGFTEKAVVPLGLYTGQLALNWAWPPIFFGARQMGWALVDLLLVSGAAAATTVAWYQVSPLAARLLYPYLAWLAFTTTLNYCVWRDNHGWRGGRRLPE

[27] = Half life in CD-1 mouse at 1 mg/kg, po or 0.5 mg/kg, iv; format: ADME, organism-based; details: in vivo
[28] = Antitumor activity against human PDX GA2254 cells xenografted in Balb/c nude mouse assessed as inhibition of SDMA level at 1 mg/kg, po bid measured for 21 days relative to control; format: functional; details: PDX GA2254, 504 h, time 21 day, read-out: TGI

Row | Compound | hepatocyte CLint [1] | logD [2] | Papp A→B at 10 µM [3] | IC50 [7] | further results
1 | O=C(NCc1ccc(F)cc1)C1c2ccc(F)cc2C(=O)N1Cc1cc2cccnc2[nH]1 (configuration not stated) | 123 µL/min/1e6 cells | 3.2 |  |  | 
2 | O=C(NCc1ccc(F)cc1)C1c2ccccc2C(=O)N1Cc1cc2ncccc2[nH]1 (configuration not stated) | 70 µL/min/1e6 cells | 3 |  |  | 
3 | O=C1c2cc(F)ccc2[C@]2(CCN(Cc3ccc(F)cc3)C2=O)N1Cc1cc2cccnc2[nH]1 | 193 µL/min/1e6 cells | 3.4 | 29 ×10⁻⁶ cm/s |  | 
4 | O=C(NCc1ccc(F)cc1)C1c2ccccc2C(=O)N1Cc1cc2cccnc2[nH]1 (configuration not stated) | 131 µL/min/1e6 cells | 3.3 | 90 ×10⁻⁶ cm/s |  | 
5 | CN(Cc1ccc(F)cc1)C(=O)C1c2ccccc2C(=O)N1Cc1cnc(NC(=N)N)s1 (configuration not stated) | 84 µL/min/1e6 cells | 2 |  |  | 
6 | COc1ccc2c(c1)C(=O)N(Cc1cnc(NC(=N)N)s1)C2C(=O)NCc1ccc(F)cc1 (configuration not stated) | 22 µL/min/1e6 cells | 2.3 |  | 380 nM | IC50 [4]: 12 nM; IC50 [5]: 51 nM; Ratio IC50 [6]: 7.7
7 | Cn1c(CN2C(=O)c3cc(F)ccc3[C@]23CCN(Cc2ccc(F)cc2)C3=O)cc2nc(N)ccc21 | 21 µL/min/1e6 cells | 2.2 |  | 4800 nM | solubility at 24 h [8]: 110 µM (≈ 53.6 µg/mL); Ratio IC50 [6]: > 5
8 | Nc1cc(C(F)F)c2[nH]c(CN3C(=O)c4cc(F)ccc4[C@]34CCN(Cc3ccc(F)cc3)C4=O)cc2n1 | 15 µL/min/1e6 cells | 2.9 | 56 ×10⁻⁶ cm/s |  | solubility at 24 h [8]: 86 µM (≈ 45 µg/mL)
9 | N=C(N)Nc1cc(CN2C(=O)c3ccccc3C2C(=O)NCc2ccc(F)cc2)ccn1 (configuration not stated) | 17 µL/min/1e6 cells | 0.9 |  | > 30000 nM | IC50 [4]: 2950 nM; IC50 [5]: 27000 nM
10 | O=C1c2cc(F)ccc2[C@]2(CCN(Cc3ccc(F)cc3)C2=O)N1Cc1cc2cnccc2[nH]1 | 3 µL/min/1e6 cells | 2.4 |  | > 30000 nM | IC50 [4]: 970 nM
11 | Nc1ccc2oc(CN3C(=O)c4cc(F)ccc4[C@]34CCN(Cc3ccc(F)cc3)C4=O)cc2n1 | 59 µL/min/1e6 cells | 2.3 | 72 ×10⁻⁶ cm/s |  | solubility at 24 h [8]: 243 µM (≈ 115 µg/mL)
12 | N=C(N)Nc1ncc(CN2C(=O)c3ccccc3C2C(=O)NCc2ccc(F)cc2)s1 (configuration not stated) | 34 µL/min/1e6 cells |  |  |  | half-life [9]: 66 min; Vdss [10]: 1.6 L/kg; fraction unbound [11]: 0.19; bioavailability [12]: 2%
13 | N=C(N)Nc1ncc(CN2C(=O)c3cc(F)ccc3C2C(=O)NCc2ccc(F)cc2)s1 (configuration not stated) | 13 µL/min/1e6 cells | 2.5 |  |  | 
14 | O=C1c2cc(F)ccc2[C@@]2(CCN(Cc3ccc(F)cc3)C2=O)N1Cc1cc2cccnc2[nH]1 | 188 µL/min/1e6 cells | 3.4 |  |  | 
15 | COc1cc(N)nc2cc(CN3C(=O)c4cc(F)ccc4[C@]34CCN(Cc3ccc(F)cc3)C4=O)[nH]c12 | 7 µL/min/1e6 cells | 1.8 | 1.4 ×10⁻⁶ cm/s | 4 nM | solubility at 24 h [8]: 610 µM (≈ 307 µg/mL); Ratio IC50 [6]: 7.2
16 | O=C1c2cc(F)ccc2[C@]2(CCN(Cc3ccc(F)cc3)C2=O)N1Cc1cc2ncccc2[nH]1 | 246 µL/min/1e6 cells | 3.1 |  |  | 
17 | COc1cccc2c1C(=O)N(Cc1cnc(NC(=N)N)s1)C2C(=O)NCc1ccc(F)cc1 (configuration not stated) | 11 µL/min/1e6 cells | 1.9 |  |  | 
18 | Nc1ccc2cc(CN3C(=O)c4cc(F)ccc4[C@]34CCN(Cc3ccc(F)cc3)C4=O)[nH]c2n1 | 12 µL/min/1e6 cells | 2.5 | 31 ×10⁻⁶ cm/s | 140 nM | IC50 [4]: 9 nM; Ratio IC50 [6]: 31
19 | O=C1c2cc(F)ccc2[C@]2(CCN(Cc3ccc(F)cc3)C2=O)N1Cc1cc2ccncc2[nH]1 | 6 µL/min/1e6 cells | 2.8 |  | 6400 nM | IC50 [4]: 370 nM; Ratio IC50 [6]: > 5
20 | Nc1nc2cc(CN3C(=O)c4cc(F)ccc4[C@]34CCN(Cc3ccc(F)cc3)C4=O)[nH]c2cc1F | < 5 µL/min/1e6 cells | 2.8 | 48 ×10⁻⁶ cm/s |  | Activity [13]: 50%; inhibition in vivo at 10 mg/kg [14]: 93%; half-life [9]: 108 min; inhibition in vivo at 100 mg/kg [15]: 95%; Vdss [10]: 2.4 L/kg; hepatocyte CLint [16]: < 1 µL/min/1e6 cells; inhibition in vivo at 100 mg/kg [17]: 71%; bioavailability [18]: 101%; Activity [19]: Non-Toxic; inhibition in vivo at 10 mg/kg [20]: 33%; solubility at 24 h [8]: 8 µM (≈ 3.93 µg/mL); inhibition [21]: Dose-Dependent Effect; inhibition [22]: Dose-Dependent Effect; inhibition in vivo at 50 mg/kg [23]: 97%; IC50 [24]: 124 nM; Vdss [25]: 2.1 L/kg; Ki [26]: 610 nM; half-life [27]: 204 min; bioavailability [12]: 35%; inhibition in vivo at 1 mg/kg [28]: 51%
21 | Nc1ccc2[nH]c(CN3C(=O)c4cc(F)ccc4[C@]34CCN(Cc3ccc(F)cc3)C4=O)cc2n1 | 13 µL/min/1e6 cells | 2.2 | 2.7 ×10⁻⁶ cm/s |  | half-life [9]: 30 min; Vdss [10]: 7.8 L/kg; hepatocyte CLint [16]: < 1 µL/min/1e6 cells; bioavailability [18]: 3%; solubility at 24 h [8]: 106 µM (≈ 50.2 µg/mL); Vdss [25]: 2.7 L/kg; half-life [27]: 53.4 min
22 | O=C(NCc1ccc(F)cc1)C1c2ccc(F)cc2C(=O)N1Cc1cc2ncccc2[nH]1 (configuration not stated) | 112 µL/min/1e6 cells | 3.4 |  |  | 
23 | Nc1ccc2[nH]c(CN3C(=O)c4cc(F)ccc4[C@]34CCN(Cc3ccc(F)cc3)C4=O)nc2n1 | 5 µL/min/1e6 cells |  |  | 1300 nM | hepatocyte CLint [16]: < 1 µL/min/1e6 cells
24 | CNC(=N)Nc1ncc(CN2C(=O)c3cc(F)ccc3C2C(=O)NCc2ccc(F)cc2)s1 (configuration not stated) | 19 µL/min/1e6 cells | 2.7 | 14 ×10⁻⁶ cm/s |  | half-life [9]: 42.6 min; Vdss [10]: 2.6 L/kg; solubility at 24 h [8]: 8 µM (≈ 3.76 µg/mL); bioavailability [12]: 20%
25 | Nc1ccc2ncc(CN3C(=O)c4cc(F)ccc4[C@]34CCN(Cc3ccc(F)cc3)C4=O)cc2n1 | 22 µL/min/1e6 cells | 2.2 | 27 ×10⁻⁶ cm/s | 240 nM | solubility at 24 h [8]: 55 µM (≈ 26.7 µg/mL); Ratio IC50 [6]: 18
26 | N#Cc1ccc2c(c1)C(C(=O)NCc1ccc(F)cc1)N(Cc1cnc(NC(=N)N)s1)C2=O (configuration not stated) | 13 µL/min/1e6 cells | 2.1 |  |  | 
27 | N=C(N)Nc1ncc(CN2C(=O)c3ccccc3C2C(=O)N(Cc2ccc(F)cc2)C2CC2)s1 (configuration not stated) | 64 µL/min/1e6 cells | 2.6 |  |  | 
28 | N=C(N)Nc1nnc(CN2C(=O)c3ccccc3C2C(=O)NCc2ccc(F)cc2)s1 (configuration not stated) | 23 µL/min/1e6 cells | 1.7 |  |  | 
